The text below walks through data of PubChem BioAssay (NCI).

Among the test systems are HOP-92 NSCLC; NCI-H226 lung; RPMI-8226 leukemia; OVCAR-5 ovarian; HCT-116 colon; OVCAR-4 ovarian; OVCAR-8 ovarian.
What all share (experiment): DTP human tumour cell line panel, 48 h

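Cultured in 96-well plates, cells were exposed to test compound for 48 hours across five concentrations. At the GI50, growth is halved. TGI denotes the concentration required for complete inhibition of growth.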 Where only a bound is given, the exact number is not on record here.

Regarding `COC(=O)C(Cc1nc2ccc(Cl)cc2[nH]c1=O)/C(=N\N)C(=O)Nc1cc(C)c(Cl)cc1S(=O)(=O)O` (stereo not drawn), the TGI in the experiment with HOP-92 NSCLC, in the experiment on NCI-H226 lung, in the experiment with RPMI-8226 leukemia, with OVCAR-5 ovarian, in the experiment on HCT-116 colon and with OVCAR-4 ovarian was above 100 µM each time. Also, in the experiment on OVCAR-8 ovarian, the TGI (usually the concentration giving total growth inhibition) is above 100 µM.

As for `O=C1/C(=C/c2ccc(Cl)cc2)CCC1CCN1CCOCC1` (stereo not drawn), the TGI with HOP-92 NSCLC is above 100 µM; in the experiment with NCI-H226 lung, above 100 µM; with RPMI-8226 leukemia it was 64.4 µM; in the experiment on OVCAR-5 ovarian, above 100 µM; in the experiment with HCT-116 colon, above 100 µM; in the experiment on OVCAR-4 ovarian it was above 100 µM. This compound also yielded a TGI with OVCAR-8 ovarian above 100 µM.

On to `Cc1ccc(NC(=O)CCc2cc(C(C)(C)C)nc(=S)[nH]2)cc1C`, for which the TGI with HOP-92 NSCLC, in the experiment with NCI-H226 lung, with RPMI-8226 leukemia, in the experiment on OVCAR-5 ovarian, with HCT-116 colon and with OVCAR-8 ovarian was above 100 µM in each case.

Regarding `COc1cccc(C2=NC(C(C)C)CO2)c1` (stereo not drawn), the TGI in the experiment with NCI-H226 lung, in the experiment with RPMI-8226 leukemia, in the experiment with OVCAR-5 ovarian, in the experiment on OVCAR-4 ovarian and in the experiment on OVCAR-8 ovarian was above 100 µM each time.

For `CCC(C)COC(=O)c1ccc(N=Cc2ccc(C=Nc3ccc(C(=O)OCC(C)CC)cc3)cc2)cc1` (stereo not drawn), the TGI in the experiment with HOP-92 NSCLC, in the experiment with NCI-H226 lung, with RPMI-8226 leukemia, in the experiment on OVCAR-5 ovarian, with HCT-116 colon and with OVCAR-4 ovarian was above 100 µM each time. This compound had a TGI with OVCAR-8 ovarian above 100 µM.

With `CC12CP(=O)(c3ccccc3)CC1C2(Cl)Cl` (stereo not drawn), the TGI with RPMI-8226 leukemia, in the experiment on HCT-116 colon, in the experiment with OVCAR-4 ovarian and in the experiment on OVCAR-8 ovarian was above 100 µM each time.

Consider `Cc1cc(Cl)ccc1NC(=O)C(=O)Cc1nc2ccccc2o1`, for which the TGI with HOP-92 NSCLC, in the experiment with RPMI-8226 leukemia, in the experiment with OVCAR-5 ovarian, in the experiment with HCT-116 colon, with OVCAR-4 ovarian and in the experiment on OVCAR-8 ovarian was above 100 µM throughout.

With `CCOc1ccccc1NC(=O)C(=O)CC(=O)c1sc(Nc2nnc(-c3ccc(Cl)c(Cl)c3)o2)nc1C`, the TGI in the experiment with HOP-92 NSCLC, in the experiment on NCI-H226 lung, in the experiment with RPMI-8226 leukemia, with OVCAR-5 ovarian, in the experiment with HCT-116 colon and in the experiment on OVCAR-4 ovarian was above 100 µM each time. The TGI with OVCAR-8 ovarian is above 100 µM.

Take `COc1ccc(CC2NCCc3c2[nH]c2ccccc32)cc1` (stereo not drawn): the TGI is 58.6 µM with HOP-92 NSCLC; above 100 µM in the experiment on NCI-H226 lung; above 100 µM in the experiment on RPMI-8226 leukemia; above 100 µM in the experiment with OVCAR-5 ovarian; above 100 µM in the experiment with HCT-116 colon; above 100 µM in the experiment on OVCAR-4 ovarian. The compound further displayed a TGI with OVCAR-8 ovarian above 100 µM.

`CCN1CCC(O)(c2ccc(OC)cc2)C(C(=O)c2ccc(OC)cc2)C1` (stereo not drawn): the TGI with NCI-H226 lung was above 100 µM; in the experiment on RPMI-8226 leukemia, 38.9 µM; in the experiment with OVCAR-5 ovarian, 32.3 µM; with HCT-116 colon, 52.4 µM; in the experiment with OVCAR-4 ovarian, 32.4 µM; with OVCAR-8 ovarian, 43.4 µM.

`NC(=O)C12CC3CC(CC(F)(C3)C1)C2`: the TGI with HOP-92 NSCLC, with RPMI-8226 leukemia, in the experiment on OVCAR-5 ovarian, in the experiment on HCT-116 colon and with OVCAR-8 ovarian was above 100 µM each time.

Consider `O=c1ccn([C@H]2CSC[C@@H](CO)C2)c(=O)[nH]1`, for which the TGI in the experiment with HOP-92 NSCLC, with NCI-H226 lung, in the experiment on RPMI-8226 leukemia, with OVCAR-5 ovarian, in the experiment on HCT-116 colon and in the experiment with OVCAR-4 ovarian was above 100 µM throughout. The compound further came in with a TGI in the experiment with OVCAR-8 ovarian above 100 µM.

For `CCCc1nc(NC#N)nc(C(=O)Nc2ccccc2)c1CC`, the TGI in the experiment with HOP-92 NSCLC, in the experiment on NCI-H226 lung, with RPMI-8226 leukemia, in the experiment with OVCAR-5 ovarian, in the experiment with HCT-116 colon and in the experiment on OVCAR-8 ovarian was above 100 µM in each case.

In the case of `COc1ccc(NC(=O)/C(Cc2cc(=O)oc3cc(O)ccc23)=N\NC(C)(C)C)c(OC)c1`, the TGI in the experiment on HOP-92 NSCLC, in the experiment with NCI-H226 lung, in the experiment on RPMI-8226 leukemia, in the experiment on OVCAR-5 ovarian, in the experiment with HCT-116 colon and in the experiment on OVCAR-4 ovarian was above 100 µM each time. The same compound yielded a TGI in the experiment on OVCAR-8 ovarian above 100 µM.

As for `C1=CC(N(c2ccccc2)C2C=CCCC2)CCC1` (stereo not drawn), the TGI with HOP-92 NSCLC, with RPMI-8226 leukemia, with HCT-116 colon and in the experiment on OVCAR-8 ovarian was above 100 µM in each case.

Consider `CC(=O)c1sc(Nc2nnc(-c3ccc(-c4nnc(Nc5nc(C)c(C(C)=O)s5)o4)cc3)o2)nc1C`, for which the TGI is above 100 µM with HOP-92 NSCLC; above 100 µM in the experiment with NCI-H226 lung; above 100 µM with RPMI-8226 leukemia; above 10 µM in the experiment on OVCAR-5 ovarian; above 100 µM in the experiment with HCT-116 colon; above 100 µM in the experiment on OVCAR-4 ovarian. This compound gave a TGI in the experiment with OVCAR-8 ovarian above 100 µM.

Take `CCC[CH2][Sn]([Cl])([CH2]CCC)[CH2]CCC`: the GI50 (usually the concentration that inhibits growth by half) is 0.0452 µM with HOP-92 NSCLC; 0.0171 µM with RPMI-8226 leukemia; 0.117 µM with OVCAR-5 ovarian; 0.0569 µM in the experiment with HCT-116 colon; 0.0998 µM in the experiment on OVCAR-4 ovarian; 0.145 µM in the experiment on OVCAR-8 ovarian. The TGI in the experiment on HOP-92 NSCLC is 0.188 µM; in the experiment with RPMI-8226 leukemia, 0.168 µM; in the experiment on OVCAR-5 ovarian, 0.248 µM; in the experiment with HCT-116 colon, 0.188 µM; in the experiment with OVCAR-4 ovarian, 0.242 µM; in the experiment with OVCAR-8 ovarian, 0.287 µM.

`N#CC(C(=O)C(=O)C(C#N)c1ccc(Br)cc1)c1ccc(Br)cc1` (stereo not drawn): the TGI with HOP-92 NSCLC is 26.4 µM; with NCI-H226 lung, 34.8 µM; in the experiment on RPMI-8226 leukemia, above 100 µM; in the experiment on OVCAR-5 ovarian it was 32.1 µM; in the experiment with HCT-116 colon it was 29.5 µM; in the experiment on OVCAR-4 ovarian it was 24.9 µM.

As for `Cc1ccc(/C=C/C(=O)c2sc(-c3nc(C)c(C(=O)/C=C/c4ccc(C)cc4)s3)nc2C)cc1`, the TGI with HOP-92 NSCLC, in the experiment with NCI-H226 lung, with RPMI-8226 leukemia, in the experiment with OVCAR-5 ovarian and with OVCAR-8 ovarian was above 100 µM each time.

Regarding `OCC1OC(c2nc(C3=NCCCN3)cs2)C(O)C1O` (stereo not drawn), the TGI in the experiment with HOP-92 NSCLC, with NCI-H226 lung, in the experiment on RPMI-8226 leukemia, in the experiment with OVCAR-5 ovarian, in the experiment with HCT-116 colon and in the experiment on OVCAR-4 ovarian was above 100 µM each time. In addition, in the experiment with OVCAR-8 ovarian, the TGI was above 100 µM.

In the case of `CCOc1ccc(NC(=O)CC#N)cc1`, the TGI in the experiment with NCI-H226 lung, with OVCAR-5 ovarian, in the experiment on HCT-116 colon, with OVCAR-4 ovarian and with OVCAR-8 ovarian was above 100 µM each time.

With `CCOC(=O)C(=[N+]=[N-])[Si](C)(C)C`, the TGI in the experiment with HOP-92 NSCLC, in the experiment on OVCAR-5 ovarian, in the experiment on HCT-116 colon, in the experiment on OVCAR-4 ovarian and with OVCAR-8 ovarian was above 100 µM throughout.

As for `CC(=O)Oc1c2c(c(O)c3ccccc13)C(n1cnc3c(ncn3C3OC(CO)C4OC(C)(C)OC43)c1=N)CCC2` (stereo not drawn), the TGI was determined as 39.1 µM in the experiment on HOP-92 NSCLC; 52.8 µM in the experiment on NCI-H226 lung; 18.7 µM in the experiment with RPMI-8226 leukemia; 35.9 µM in the experiment on OVCAR-5 ovarian; 23.9 µM with OVCAR-8 ovarian.

Consider `O=C(CCc1n[nH]c(=S)o1)Nc1ccccc1C(F)(F)F`, for which the TGI in the experiment on HOP-92 NSCLC is above 100 µM; in the experiment with NCI-H226 lung, above 100 µM; with RPMI-8226 leukemia it was 85.1 µM; in the experiment on OVCAR-5 ovarian it was above 100 µM; in the experiment on OVCAR-4 ovarian, above 100 µM; in the experiment with OVCAR-8 ovarian, above 100 µM.

Consider `O=C(Nc1nc(=S)c2c(ncn2CCOC(=O)c2ccccc2)[nH]1)c1ccccc1`, for which the TGI with HOP-92 NSCLC was above 100 µM; with NCI-H226 lung, above 100 µM; in the experiment with RPMI-8226 leukemia, above 100 µM; in the experiment with OVCAR-5 ovarian it was above 100 µM; in the experiment on HCT-116 colon, above 100 µM; with OVCAR-4 ovarian it was 57.7 µM. The TGI with OVCAR-8 ovarian was above 100 µM.

Take `O=C(/C=C/c1cccc2ccccc12)c1ccccc1Cl`: the TGI with HOP-92 NSCLC was 26.4 µM; in the experiment with NCI-H226 lung it was above 100 µM; in the experiment on RPMI-8226 leukemia, 47.3 µM; in the experiment on HCT-116 colon, 20.9 µM; with OVCAR-4 ovarian it was 28.5 µM; with OVCAR-8 ovarian, 26.7 µM.

As for `Cc1cc(N(CCC#N)CCC#N)ccc1N=Nc1ccc(C(=O)O)cc1`, the TGI in the experiment with NCI-H226 lung, in the experiment with RPMI-8226 leukemia, in the experiment with OVCAR-5 ovarian, in the experiment on OVCAR-4 ovarian and in the experiment with OVCAR-8 ovarian was above 100 µM throughout.

As to `CN(C)CC1CCCC/C1=N/OC(=O)c1ccc(Cl)cc1` (stereo not drawn), the TGI with HOP-92 NSCLC, in the experiment on NCI-H226 lung, with RPMI-8226 leukemia, in the experiment on OVCAR-5 ovarian, in the experiment on HCT-116 colon and with OVCAR-4 ovarian was above 100 µM in each case. The compound further displayed a TGI in the experiment on OVCAR-8 ovarian above 100 µM.

On to `Cc1[nH]c2ccccc2c1C(=O)/C=C/c1ccccc1O`, for which the TGI in the experiment with OVCAR-5 ovarian, with HCT-116 colon, in the experiment on OVCAR-4 ovarian and in the experiment with OVCAR-8 ovarian was above 100 µM in each case.
